These results are taken from patent publication US20230123334A1, “AMINO LIPID COMPOUND, PREPARATION METHOD THEREFOR, AND APPLICATION THEREOF” (SHENZHEN SHENXIN BIOTECHNOLOGY CO., LTD., priority 2020, published 2023).

The subject of this assay is HEK293 cells. In words: Preliminary screening as DNA vectors, GFP transfection of HEK293 cells. The note with it: amino lipid/DOPE liposome with 75 ng plasmid DNA (psin-EGFP-IRES-Puro); number of GFP-expressing cells divided by total nuclei (Hoechst). Type of assay: cell-based. The essentials: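 HEK293 cells in DMEM/10% FBS transfected with 75 ng EGFP plasmid per well complexed with amino lipid/DOPE liposomes in pH 5.6 sodium acetate. Hoechst nuclear stain added 20-24 h post-transfection, then cells cultured another 20-24 h. Confocal imaging gives GFP-positive cells as % of total nuclei.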

Take `CCCCCCCCCCCCCNc1nc(NCCN2CCCCC2)nc(SCCCCCCCCCCCC)n1` [S12N13 D4]: the “Absolute DNA transfection efficiency in HEK293 cells” value (“Absolute DNA transfection efficiency” below) is listed as 0.5%. For the compound `CCCCCCCCCCCCCNc1nc(NCCN2CCN(C)CC2)nc(SCCCCCCCCCCCC)n1` [S12N13 D5], the “Absolute DNA transfection efficiency” value is 1.5%. In the case of `CCCCCCCCCCCCCNc1nc(NCCCN(C)C)nc(SCCCCCCCCCCCC)n1` [S12N13 D6], the “Absolute DNA transfection efficiency” value is reported as 7.0%.

Take `CCCCCCCCCCCCCNc1nc(NCCN(CC)CC)nc(SCCCCCCCCCCCC)n1` [S12N13 D7]: the “Absolute DNA transfection efficiency” value was found to be 12.9%. As for `CCCCCCCCCCCCCNc1nc(NCCCN2CCOCC2)nc(SCCCCCCCCCCCC)n1` [S12N13 D8], the “Absolute DNA transfection efficiency” value is recorded as 0.0%. With `CCCCCCCCCCCCCNc1nc(NCCCN2CCN(C)CC2)nc(SCCCCCCCCCCCC)n1` [S12N13 D9], the “Absolute DNA transfection efficiency” value turned out to be 2.1%.

`CCCCCCCCCCCCCNc1nc(NCC2CCN(C)CC2)nc(SCCCCCCCCCCCC)n1` [S12N13 D10]: the “Absolute DNA transfection efficiency” value is reported as 2.4%. With `CCCCCCCCCCCCCCCNc1nc(NCCN(C)C)nc(SCCCCCCCCCCCC)n1` [S12N15 D1], the “Absolute DNA transfection efficiency” value was determined as 0.8%. For `CCCCCCCCCCCCCCCNc1nc(NCCN2CCOCC2)nc(SCCCCCCCCCCCC)n1` [S12N15 D2], the “Absolute DNA transfection efficiency” value was found to be 0.0%.

On to `CCCCCCCCCCCCCCCNc1nc(NCCN2CCCC2)nc(SCCCCCCCCCCCC)n1` [S12N15 D3], for which the “Absolute DNA transfection efficiency” value is recorded as 2.0%. Regarding `CCCCCCCCCCCCCCCNc1nc(NCCN2CCCCC2)nc(SCCCCCCCCCCCC)n1` [S12N15 D4], the “Absolute DNA transfection efficiency” value is listed as 1.0%.

In the case of `CCCCCCCCCCCCCCCNc1nc(NCCN2CCN(C)CC2)nc(SCCCCCCCCCCCC)n1` [S12N15 D5], the “Absolute DNA transfection efficiency” value was found to be 0.2%. To `CCCCCCCCCCCCCCCNc1nc(NCCCN(C)C)nc(SCCCCCCCCCCCC)n1` [S12N15 D6] belongs 0.9%; to `CCCCCCCCCCCCCCCNc1nc(NCCN(CC)CC)nc(SCCCCCCCCCCCC)n1` [S12N15 D7], 3.6%; to `CCCCCCCCCCCCCCCNc1nc(NCCCN2CCOCC2)nc(SCCCCCCCCCCCC)n1` [S12N15 D8], 0.0%. To `CCCCCCCCCCCCCCCNc1nc(NCCCN2CCN(C)CC2)nc(SCCCCCCCCCCCC)n1` [S12N15 D9] belongs 0.2%. In the case of `CCCCCCCCCCCCCCCNc1nc(NCC2CCN(C)CC2)nc(SCCCCCCCCCCCC)n1` [S12N15 D10] it was 4.0%; in that of `CCCCCCCCCCCCCCCCNc1nc(NCCN(C)C)nc(SCCCCCCCCCCCC)n1` [S12N16 D1], 0.5%; in that of `CCCCCCCCCCCCCCCCNc1nc(NCCN2CCOCC2)nc(SCCCCCCCCCCCC)n1` [S12N16 D2], 0.0%.

Consider `CCCCCCCCCCCCCCCCNc1nc(NCCN2CCCC2)nc(SCCCCCCCCCCCC)n1` [S12N16 D3], for which the “Absolute DNA transfection efficiency” value is listed as 2.6%. With `CCCCCCCCCCCCCCCCNc1nc(NCCN2CCCCC2)nc(SCCCCCCCCCCCC)n1` [S12N16 D4], the “Absolute DNA transfection efficiency” value came out at 0.7%. For the compound `CCCCCCCCCCCCCCCCNc1nc(NCCN2CCN(C)CC2)nc(SCCCCCCCCCCCC)n1` [S12N16 D5], the “Absolute DNA transfection efficiency” value is on record as 0.7%. Turning to `CCCCCCCCCCCCCCCCNc1nc(NCCCN(C)C)nc(SCCCCCCCCCCCC)n1` [S12N16 D6], the “Absolute DNA transfection efficiency” value is recorded as 2.1%.

For `CCCCCCCCCCCCCCCCNc1nc(NCCN(CC)CC)nc(SCCCCCCCCCCCC)n1` [S12N16 D7], the “Absolute DNA transfection efficiency” value is reported as 3.6%. With `CCCCCCCCCCCCCCCCNc1nc(NCCCN2CCOCC2)nc(SCCCCCCCCCCCC)n1` [S12N16 D8], the “Absolute DNA transfection efficiency” value is 0.0%.

Regarding `CCCCCCCCCCCCCCCCNc1nc(NCCCN2CCN(C)CC2)nc(SCCCCCCCCCCCC)n1` [S12N16 D9], the “Absolute DNA transfection efficiency” value is on record as 0.4%. Regarding `CCCCCCCCCCCCCCCCNc1nc(NCC2CCN(C)CC2)nc(SCCCCCCCCCCCC)n1` [S12N16 D10], the “Absolute DNA transfection efficiency” value worked out at 2.4%. On to `CCCCCCCCCCCCCCCCCCNc1nc(NCCN(C)C)nc(SCCCCCCCCCCCC)n1` [S12N18 D1], for which the “Absolute DNA transfection efficiency” value worked out at 0.7%.

For the compound `CCCCCCCCCCCCCCCCCCNc1nc(NCCN2CCOCC2)nc(SCCCCCCCCCCCC)n1` [S12N18 D2], the “Absolute DNA transfection efficiency” value is recorded as 0.0%.

Turning to `CCCCCCCCCCCCCCCCCCNc1nc(NCCN2CCCC2)nc(SCCCCCCCCCCCC)n1` [S12N18 D3], the “Absolute DNA transfection efficiency” value amounted to 3.9%. Regarding `CCCCCCCCCCCCCCCCCCNc1nc(NCCN2CCCCC2)nc(SCCCCCCCCCCCC)n1` [S12N18 D4], the “Absolute DNA transfection efficiency” value turned out to be 0.3%. As for `CCCCCCCCCCCCCCCCCCNc1nc(NCCN2CCN(C)CC2)nc(SCCCCCCCCCCCC)n1` [S12N18 D5], the “Absolute DNA transfection efficiency” value was found to be 0.6%. In the case of `CCCCCCCCCCCCCCCCCCNc1nc(NCCCN(C)C)nc(SCCCCCCCCCCCC)n1` [S12N18 D6] it was 0.6%.

Consider `CCCCCCCCCCCCCCCCCCNc1nc(NCCN(CC)CC)nc(SCCCCCCCCCCCC)n1` [S12N18 D7], for which the “Absolute DNA transfection efficiency” value was found to be 0.3%. `CCCCCCCCCCCCCCCCCCNc1nc(NCCCN2CCOCC2)nc(SCCCCCCCCCCCC)n1` [S12N18 D8]: the “Absolute DNA transfection efficiency” value came out at 0.0%. In the case of `CCCCCCCCCCCCCCCCCCNc1nc(NCCCN2CCN(C)CC2)nc(SCCCCCCCCCCCC)n1` [S12N18 D9] it was 0.2%; in that of `CCCCCCCCCCCCCCCCCCNc1nc(NCC2CCN(C)CC2)nc(SCCCCCCCCCCCC)n1` [S12N18 D10], 3.7%; in that of `CCCCCCCCCCCCSc1nc(NCCN(C)C)nc(N(CCCCCCCCCCCC)CCCCCCCCCCCC)n1` [S12^2N12 D1], 0.0%. In the case of `CCCCCCCCCCCCSc1nc(NCCN2CCOCC2)nc(N(CCCCCCCCCCCC)CCCCCCCCCCCC)n1` [S12^2N12 D2] it was 0.0%; in that of `CCCCCCCCCCCCSc1nc(NCCN2CCCC2)nc(N(CCCCCCCCCCCC)CCCCCCCCCCCC)n1` [S12^2N12 D3], 0.0%.

Turning to `CCCCCCCCCCCCSc1nc(NCCN2CCCCC2)nc(N(CCCCCCCCCCCC)CCCCCCCCCCCC)n1` [S12^2N12 D4], the “Absolute DNA transfection efficiency” value is reported as 0.0%. To `CCCCCCCCCCCCSc1nc(NCCN2CCN(C)CC2)nc(N(CCCCCCCCCCCC)CCCCCCCCCCCC)n1` [S12^2N12 D5] belongs 0.3%; to `CCCCCCCCCCCCSc1nc(NCCCN(C)C)nc(N(CCCCCCCCCCCC)CCCCCCCCCCCC)n1` [S12^2N12 D6], 0.3%. In the case of `CCCCCCCCCCCCSc1nc(NCCN(CC)CC)nc(N(CCCCCCCCCCCC)CCCCCCCCCCCC)n1` [S12^2N12 D7] it was 0.1%. In the case of `CCCCCCCCCCCCSc1nc(NCCCN2CCOCC2)nc(N(CCCCCCCCCCCC)CCCCCCCCCCCC)n1` [S12^2N12 D8] it was 0.0%. For `CCCCCCCCCCCCSc1nc(NCCCN2CCN(C)CC2)nc(N(CCCCCCCCCCCC)CCCCCCCCCCCC)n1` [S12^2N12 D9], the “Absolute DNA transfection efficiency” value is reported as 0.1%. With `CCCCCCCCCCCCSc1nc(NCC2CCN(C)CC2)nc(N(CCCCCCCCCCCC)CCCCCCCCCCCC)n1` [S12^2N12 D10], the “Absolute DNA transfection efficiency” value was 0.1%.

On to `CCCCCCCCCCCCCCSc1nc(NCCCCCC)nc(NCCN(C)C)n1` [S14N6 D1], for which the “Absolute DNA transfection efficiency” value amounted to 24.1%. `CCCCCCCCCCCCCCSc1nc(NCCCCCC)nc(NCCN2CCOCC2)n1` [S14N6 D2]: the “Absolute DNA transfection efficiency” value stood at 18.8%. As for `CCCCCCCCCCCCCCSc1nc(NCCCCCC)nc(NCCN2CCCC2)n1` [S14N6 D3], the “Absolute DNA transfection efficiency” value is 23.6%.

For `CCCCCCCCCCCCCCSc1nc(NCCCCCC)nc(NCCN2CCCCC2)n1` [S14N6 D4], the “Absolute DNA transfection efficiency” value turned out to be 2.5%. In the case of `CCCCCCCCCCCCCCSc1nc(NCCCCCC)nc(NCCN2CCN(C)CC2)n1` [S14N6 D5] it was 21.7%.

On to `CCCCCCCCCCCCCCSc1nc(NCCCCCC)nc(NCCCN(C)C)n1` [S14N6 D6], for which the “Absolute DNA transfection efficiency” value amounted to 30.1%. To `CCCCCCCCCCCCCCSc1nc(NCCCCCC)nc(NCCN(CC)CC)n1` [S14N6 D7] belongs 20.3%; to `CCCCCCCCCCCCCCSc1nc(NCCCCCC)nc(NCCCN2CCOCC2)n1` [S14N6 D8], 13.6%.

For the compound `CCCCCCCCCCCCCCSc1nc(NCCCCCC)nc(NCCCN2CCN(C)CC2)n1` [S14N6 D9], the “Absolute DNA transfection efficiency” value was determined as 17.4%. Consider `CCCCCCCCCCCCCCSc1nc(NCCCCCC)nc(NCC2CCN(C)CC2)n1` [S14N6 D10], for which the “Absolute DNA transfection efficiency” value was 39.0%. On to `CCCCCCCCCCCCCCSc1nc(NCCCCCCC)nc(NCCN(C)C)n1` [S14N7 D1], for which the “Absolute DNA transfection efficiency” value came out at 12.5%. `CCCCCCCCCCCCCCSc1nc(NCCCCCCC)nc(NCCN2CCOCC2)n1` [S14N7 D2]: the “Absolute DNA transfection efficiency” value is recorded as 18.7%. To `CCCCCCCCCCCCCCSc1nc(NCCCCCCC)nc(NCCN2CCCC2)n1` [S14N7 D3] belongs 14.4%.

On to `CCCCCCCCCCCCCCSc1nc(NCCCCCCC)nc(NCCN2CCCCC2)n1` [S14N7 D4], for which the “Absolute DNA transfection efficiency” value worked out at 3.7%. Regarding `CCCCCCCCCCCCCCSc1nc(NCCCCCCC)nc(NCCN2CCN(C)CC2)n1` [S14N7 D5], the “Absolute DNA transfection efficiency” value was found to be 16.3%. To `CCCCCCCCCCCCCCSc1nc(NCCCCCCC)nc(NCCCN(C)C)n1` [S14N7 D6] belongs 25.0%.
